# In ChEMBL document CHEMBL1201862, “PubChem BioAssay data set” (2004):
# Active and inactive are the calls of the source.
# Tests used:
# [1] = target: SUMO-activating enzyme (Homo sapiens, UniProt Q9UBT2); assay: blockers of UBC9-mediated SUMO conjugation – biochemical, AlphaScreen, SUMOylation inhibitor project, confirmation (AID 2018); type: functional
# [2] = target: Luciferin 4-monooxygenase (Photinus pyralis, UniProt P08659); assay: inhibition of purified Photinus pyralis luciferase – biochemical, luminescence, dose response (AID 1891)
# Luciferin 4-monooxygenase, sequence (P08659 whole entry): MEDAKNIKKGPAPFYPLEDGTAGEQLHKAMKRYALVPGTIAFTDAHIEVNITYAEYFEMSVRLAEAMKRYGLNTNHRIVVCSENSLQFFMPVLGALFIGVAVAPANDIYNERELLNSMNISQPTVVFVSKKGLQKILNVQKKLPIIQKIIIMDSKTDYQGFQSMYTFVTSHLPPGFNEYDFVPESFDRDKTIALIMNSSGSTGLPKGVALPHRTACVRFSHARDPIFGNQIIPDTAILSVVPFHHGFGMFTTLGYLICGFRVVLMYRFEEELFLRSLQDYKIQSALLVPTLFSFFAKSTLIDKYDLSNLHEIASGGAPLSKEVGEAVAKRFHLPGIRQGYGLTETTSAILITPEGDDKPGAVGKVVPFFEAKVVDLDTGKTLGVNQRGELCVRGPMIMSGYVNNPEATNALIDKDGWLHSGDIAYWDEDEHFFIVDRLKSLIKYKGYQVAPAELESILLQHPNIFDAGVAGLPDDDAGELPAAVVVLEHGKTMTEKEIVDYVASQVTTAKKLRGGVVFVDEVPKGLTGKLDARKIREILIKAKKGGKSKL
# [3] = target: Prothrombin (Homo sapiens, UniProt P00734); assay: Thrombin 1536 HTS Dose Response Confirmation. [Related pubchem assays: 1046 (Thrombin 1536 HTS; hits were confirmed in this assay)]; type: functional
# [4] = target: Tumor necrosis factor (Homo sapiens, UniProt P01375); assay: analog potency on TNFa NF-kB signaling – cell-based, revised, SAR follow-up (AID 2337); type: functional
# Tumor necrosis factor, sequence (P01375 whole entry): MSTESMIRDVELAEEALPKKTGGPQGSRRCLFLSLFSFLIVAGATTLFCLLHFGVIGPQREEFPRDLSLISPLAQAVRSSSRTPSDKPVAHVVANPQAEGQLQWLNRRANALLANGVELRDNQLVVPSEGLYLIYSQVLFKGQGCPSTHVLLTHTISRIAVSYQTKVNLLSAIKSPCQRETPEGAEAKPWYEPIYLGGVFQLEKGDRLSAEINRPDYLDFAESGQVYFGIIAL
# [5] = tested on: HEK293; assay: cells; details: Homo sapiens;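 also: cells exposed to compound for 14 hours overnight before viability readout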
# [6] = target: Nucleotide-binding oligomerization domain-containing protein 2 (Homo sapiens, UniProt Q9HC29); assay: PubChem AID 2334; type: functional
# Nucleotide-binding oligomerization domain-containing protein 2, sequence (Q9HC29 whole entry, the tested form may be a part): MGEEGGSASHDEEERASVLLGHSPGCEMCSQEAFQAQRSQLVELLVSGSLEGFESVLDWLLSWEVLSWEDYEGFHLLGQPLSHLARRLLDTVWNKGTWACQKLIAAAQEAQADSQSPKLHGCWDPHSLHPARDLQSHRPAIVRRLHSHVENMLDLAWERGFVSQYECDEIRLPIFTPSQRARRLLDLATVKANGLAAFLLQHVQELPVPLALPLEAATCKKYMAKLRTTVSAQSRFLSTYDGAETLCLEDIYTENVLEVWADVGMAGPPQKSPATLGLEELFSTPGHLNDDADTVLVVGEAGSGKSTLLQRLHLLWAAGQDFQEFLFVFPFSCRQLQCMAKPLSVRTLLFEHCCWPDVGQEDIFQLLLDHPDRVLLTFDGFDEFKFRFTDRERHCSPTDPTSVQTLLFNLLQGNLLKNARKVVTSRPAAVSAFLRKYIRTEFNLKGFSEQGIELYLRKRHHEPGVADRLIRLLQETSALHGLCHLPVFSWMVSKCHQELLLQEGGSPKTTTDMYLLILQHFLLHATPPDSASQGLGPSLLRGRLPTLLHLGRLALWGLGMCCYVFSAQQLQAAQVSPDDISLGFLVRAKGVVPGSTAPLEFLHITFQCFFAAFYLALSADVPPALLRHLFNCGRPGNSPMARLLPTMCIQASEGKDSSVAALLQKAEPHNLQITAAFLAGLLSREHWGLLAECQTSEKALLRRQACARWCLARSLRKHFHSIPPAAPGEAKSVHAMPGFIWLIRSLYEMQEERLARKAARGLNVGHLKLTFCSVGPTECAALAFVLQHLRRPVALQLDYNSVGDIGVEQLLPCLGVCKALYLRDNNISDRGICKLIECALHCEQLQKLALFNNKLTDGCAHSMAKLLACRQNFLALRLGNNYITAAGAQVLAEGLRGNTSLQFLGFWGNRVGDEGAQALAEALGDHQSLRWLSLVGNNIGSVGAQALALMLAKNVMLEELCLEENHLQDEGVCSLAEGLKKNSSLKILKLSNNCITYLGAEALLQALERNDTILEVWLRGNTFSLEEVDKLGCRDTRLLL
# [7] = target: T1, Nucleotide-binding oligomerization domain-containing protein 1 (Homo sapiens, UniProt Q9Y239); assay: blockers of NOD1 pathway activity – revised, SAR follow-up (AID 2333); type: functional
# T1 sequence (Q9Y239 whole entry): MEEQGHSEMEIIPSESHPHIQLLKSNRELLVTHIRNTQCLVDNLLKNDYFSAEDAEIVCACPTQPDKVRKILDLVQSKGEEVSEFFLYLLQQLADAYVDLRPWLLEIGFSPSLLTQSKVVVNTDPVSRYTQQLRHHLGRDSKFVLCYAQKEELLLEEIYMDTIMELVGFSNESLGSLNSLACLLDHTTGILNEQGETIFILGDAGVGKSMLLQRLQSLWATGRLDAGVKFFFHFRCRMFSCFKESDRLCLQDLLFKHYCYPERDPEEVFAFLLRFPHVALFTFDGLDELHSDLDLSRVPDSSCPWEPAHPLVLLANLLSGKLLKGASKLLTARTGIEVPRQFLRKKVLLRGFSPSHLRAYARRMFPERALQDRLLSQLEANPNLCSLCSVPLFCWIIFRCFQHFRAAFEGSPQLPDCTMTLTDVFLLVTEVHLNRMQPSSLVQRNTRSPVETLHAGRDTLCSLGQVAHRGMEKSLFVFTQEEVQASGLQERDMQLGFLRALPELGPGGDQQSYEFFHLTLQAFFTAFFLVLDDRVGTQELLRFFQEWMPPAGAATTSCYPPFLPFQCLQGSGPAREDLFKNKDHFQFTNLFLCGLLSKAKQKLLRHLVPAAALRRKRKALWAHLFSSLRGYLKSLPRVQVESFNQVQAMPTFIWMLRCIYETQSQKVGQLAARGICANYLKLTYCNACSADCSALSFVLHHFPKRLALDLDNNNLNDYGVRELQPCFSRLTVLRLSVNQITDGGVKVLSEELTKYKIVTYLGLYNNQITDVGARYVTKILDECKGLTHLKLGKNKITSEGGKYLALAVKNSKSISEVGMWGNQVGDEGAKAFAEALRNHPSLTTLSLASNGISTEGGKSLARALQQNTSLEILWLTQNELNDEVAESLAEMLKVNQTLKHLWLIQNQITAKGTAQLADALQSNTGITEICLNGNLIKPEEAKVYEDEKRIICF
# [8] = Trypanosoma cruzi growth suppression in host cells – NIH3T3 host cells, beta-gal luminescence, confirmation (AID 2044); type: functional, cell-based;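 also: intracellular parasites grown in NIH/3T3 mouse fibroblasts as host cells; luminescent beta-galactosidase reporter signal from transgenic T. cruzi replicating inside host cells; inhibitors lower the luminescence signal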
# [9] = A cytotoxicity screen of small molecule inhibitors of the PhoP region in Salmonella typhi identified in the primary screen. [Related pubchem assays: 1850, 1864, 1985 ]; type: functional
# [10] = NIH3T3 cell viability loss – ATP luminescence, mouse fibroblasts, counter-screen, dose response (AID 2010); type: functional, cell-based;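 also: cells exposed to compound for about 90 hours before reading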
# [11] = target: Eukaryotic translation initiation factor 4E (Mus musculus, UniProt P63073); assay: blockers of eIF4G binding by eIF4E – biochemical, TR-FRET, dose response (AID 855); type: functional;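 also: potency for disrupting eIF4E binding to eIF4GI seen as loss of FRET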
# Eukaryotic translation initiation factor 4E, sequence (P63073 whole entry): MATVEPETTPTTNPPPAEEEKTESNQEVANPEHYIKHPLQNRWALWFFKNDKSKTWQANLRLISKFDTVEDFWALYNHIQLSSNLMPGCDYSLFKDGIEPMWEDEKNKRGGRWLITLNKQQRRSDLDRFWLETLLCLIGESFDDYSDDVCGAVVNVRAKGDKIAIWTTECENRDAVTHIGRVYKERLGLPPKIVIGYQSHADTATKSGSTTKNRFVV
# [12] = target: T2, Polyadenylate-binding protein 1 (Homo sapiens, UniProt P11940); assay: MLLE binding blockers, Cy5 peptide tracer – biochemical, fluorescence polarization, Cy5-PAM2 peptide, secondary, miRNA deadenylation inhibitor project, dose response (AID 602260); type: functional; details: read-out: IC50_Mean
# T2 sequence (P11940 whole entry): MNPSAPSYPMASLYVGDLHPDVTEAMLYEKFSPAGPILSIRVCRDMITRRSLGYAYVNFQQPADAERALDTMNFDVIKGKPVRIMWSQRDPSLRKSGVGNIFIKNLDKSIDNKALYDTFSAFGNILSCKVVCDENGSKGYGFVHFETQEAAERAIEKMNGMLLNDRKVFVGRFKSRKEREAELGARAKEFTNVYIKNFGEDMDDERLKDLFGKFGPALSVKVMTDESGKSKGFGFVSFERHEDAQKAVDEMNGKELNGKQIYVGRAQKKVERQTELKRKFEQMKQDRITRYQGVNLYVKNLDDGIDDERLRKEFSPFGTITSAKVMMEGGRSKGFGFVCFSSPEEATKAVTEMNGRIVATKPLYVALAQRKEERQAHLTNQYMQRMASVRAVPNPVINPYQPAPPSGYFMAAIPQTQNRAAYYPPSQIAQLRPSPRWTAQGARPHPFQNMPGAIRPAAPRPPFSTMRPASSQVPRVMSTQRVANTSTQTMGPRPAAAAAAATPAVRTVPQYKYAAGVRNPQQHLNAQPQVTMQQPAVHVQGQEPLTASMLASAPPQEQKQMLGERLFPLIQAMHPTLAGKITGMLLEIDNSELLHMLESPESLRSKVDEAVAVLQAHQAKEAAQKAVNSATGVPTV
# [13] = target: DNA dC->dU-editing enzyme APOBEC-3G (Homo sapiens, UniProt Q9HC16); assay: Dose Response confirmation of small molecule APOBEC3G DNA Deaminase Inhibitors via a fluorescence-based single-stranded DNA deaminase assay. [Related pubchem assays (depositor defined):AID493012, AID493028]; type: functional
# DNA dC->dU-editing enzyme APOBEC-3G, sequence (Q9HC16 whole entry, the tested form may be a part): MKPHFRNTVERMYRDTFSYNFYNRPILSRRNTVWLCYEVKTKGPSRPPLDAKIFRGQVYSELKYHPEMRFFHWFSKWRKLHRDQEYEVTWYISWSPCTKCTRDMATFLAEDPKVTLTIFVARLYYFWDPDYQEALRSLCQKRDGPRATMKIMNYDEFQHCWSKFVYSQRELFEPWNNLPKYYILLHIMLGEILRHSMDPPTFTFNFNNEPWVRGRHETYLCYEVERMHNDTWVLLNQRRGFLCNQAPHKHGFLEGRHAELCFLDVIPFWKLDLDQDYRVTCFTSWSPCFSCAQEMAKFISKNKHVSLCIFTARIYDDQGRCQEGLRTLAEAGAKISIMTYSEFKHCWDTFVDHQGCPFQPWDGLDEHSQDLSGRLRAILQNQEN
# [14] = target: T2, Polyadenylate-binding protein 1; assay: MLLE domain peptide-binding blockers, IC50 – biochemical, fluorescence polarization, FITC-PAM2 peptide, dose response (AID 602259); type: functional; details: read-out: IC50_Mean
# [15] = Vero E6 cell cytotoxicity, dose response, cytotoxicity control for non-replicating M. tuberculosis project, secondary assay (AID 492998); type: functional, VeroE6; details: Vero C1008
# [16] = cells; type: functional
# [17] = HepG2 cell cytotoxicity, dose response, cytotoxicity control for non-replicating M. tuberculosis project (AID 489018); type: functional; details: Mycobacterium tuberculosis
# [18] = THP-1 cell cytotoxicity, dose response, cytotoxicity control for non-replicating M. tuberculosis project (AID 489025); type: functional
# [19] = target: T3, Ubiquitin-conjugating enzyme E2 N (Homo sapiens, UniProt P61088); type: functional;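 also: Dose-response confirmation in a TR-FRET assay detecting UBC13-driven polyubiquitin chain formation, inhibition measured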
# T3 sequence (P61088 whole entry): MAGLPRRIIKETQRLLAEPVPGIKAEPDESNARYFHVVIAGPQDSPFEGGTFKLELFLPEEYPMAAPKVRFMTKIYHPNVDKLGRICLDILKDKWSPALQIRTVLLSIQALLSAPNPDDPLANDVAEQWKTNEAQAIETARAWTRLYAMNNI
# [20] = Luminescence Cell-Based Dose Retest to Confirm Inhibitors of Cancer Stem Cells. [Related pubchem assays (depositor defined):AID2717, AID2721]; type: functional; details: Homo sapiens
# [21] = target: Estrogen receptor beta (Homo sapiens, UniProt Q92731); assay: blockers of SRC-3 recruitment to ERβ – biochemical, ELISA, streptavidin-HRP readout, orthogonal assay, confirmation (AID 1060)
# Estrogen receptor beta, sequence (Q92731 whole entry): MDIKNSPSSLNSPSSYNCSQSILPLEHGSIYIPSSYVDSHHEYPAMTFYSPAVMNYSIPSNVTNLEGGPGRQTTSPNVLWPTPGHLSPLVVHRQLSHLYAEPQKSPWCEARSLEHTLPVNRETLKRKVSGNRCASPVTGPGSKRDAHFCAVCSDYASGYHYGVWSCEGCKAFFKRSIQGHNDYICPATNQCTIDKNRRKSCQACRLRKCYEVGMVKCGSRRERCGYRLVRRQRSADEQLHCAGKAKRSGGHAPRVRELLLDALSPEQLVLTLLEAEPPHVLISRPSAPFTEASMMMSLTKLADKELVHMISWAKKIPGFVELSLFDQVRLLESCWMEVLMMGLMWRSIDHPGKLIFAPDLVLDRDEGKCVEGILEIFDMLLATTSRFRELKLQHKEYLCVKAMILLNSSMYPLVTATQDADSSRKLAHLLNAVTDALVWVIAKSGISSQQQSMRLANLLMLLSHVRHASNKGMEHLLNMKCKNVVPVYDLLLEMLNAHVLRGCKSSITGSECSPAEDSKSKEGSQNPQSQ
# 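For AC50 in this document: cells exposed to compound for roughly 70 hours or longer before luminescence read.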
# SUMO-activating enzyme, sequence (Q9UBE0 whole entry): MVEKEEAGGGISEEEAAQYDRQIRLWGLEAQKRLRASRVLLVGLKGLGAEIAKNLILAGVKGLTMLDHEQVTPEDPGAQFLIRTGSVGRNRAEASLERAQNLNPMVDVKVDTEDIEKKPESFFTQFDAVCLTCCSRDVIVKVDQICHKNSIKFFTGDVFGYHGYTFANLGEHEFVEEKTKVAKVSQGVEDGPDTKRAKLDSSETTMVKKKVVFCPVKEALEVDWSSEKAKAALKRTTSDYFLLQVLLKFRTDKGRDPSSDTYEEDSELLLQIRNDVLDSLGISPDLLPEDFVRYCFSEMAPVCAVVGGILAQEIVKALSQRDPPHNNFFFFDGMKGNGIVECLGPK
# SUMO-activating enzyme, sequence (Q9UBT2 whole entry): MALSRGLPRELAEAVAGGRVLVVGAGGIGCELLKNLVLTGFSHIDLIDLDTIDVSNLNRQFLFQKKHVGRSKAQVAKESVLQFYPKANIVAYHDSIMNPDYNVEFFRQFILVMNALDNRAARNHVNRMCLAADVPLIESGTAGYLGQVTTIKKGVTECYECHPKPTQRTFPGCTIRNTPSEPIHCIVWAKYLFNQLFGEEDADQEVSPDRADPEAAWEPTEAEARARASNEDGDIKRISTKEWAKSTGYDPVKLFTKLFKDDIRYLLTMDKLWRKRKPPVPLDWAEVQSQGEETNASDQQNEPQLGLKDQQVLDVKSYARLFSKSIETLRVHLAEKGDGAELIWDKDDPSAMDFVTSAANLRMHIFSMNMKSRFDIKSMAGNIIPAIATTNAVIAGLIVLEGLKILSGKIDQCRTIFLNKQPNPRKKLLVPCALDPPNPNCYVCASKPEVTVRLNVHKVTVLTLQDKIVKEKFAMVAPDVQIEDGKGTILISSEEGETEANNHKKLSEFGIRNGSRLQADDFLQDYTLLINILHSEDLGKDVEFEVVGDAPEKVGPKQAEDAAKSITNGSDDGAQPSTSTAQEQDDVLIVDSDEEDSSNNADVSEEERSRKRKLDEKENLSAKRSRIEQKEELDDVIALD
structure (smiles),measurement,setting,value
NC(=O)CC(NC(=O)Cc1cccc2ccccc12)c1ccc(NCCc2ccccc2F)c([N+](=O)[O-])c1 (stereo not drawn),IC50,[1],39 µM (active)
O=C(COC(=O)c1n[nH]c2ccccc12)Nc1cccc(S(=O)(=O)N2CCOCC2)c1,EC50,[2],> 112 µM (not active)
same,IC50,[3],1.11 µM (active)
O=C(O)c1c(-n2cccc2)sc2c1CCCC2,IC50,[4],> 20 µM (inactive)
same,IC50,[5],> 20 µM (inactive)
same,IC50,[6],> 20 µM (inactive)
same,IC50,[7],> 20 µM (inactive)
O=C(NCCc1ccncc1)Nc1ccc(Cl)c(Cl)c1,EC50,[8],1.34 µM (active)
same,EC50,[9],> 50 µM (active)
same,EC50,[10],> 60 µM (not active)
COc1cc(NC(=O)c2cncc(-c3ccc(C#N)cc3)c2)cc(C(=O)Nc2cccc(C(F)(F)F)c2)c1,IC50,[1],53.5 µM (active)
O=C(O)C1CC(c2ccccc2F)=NO1 (stereo not drawn),IC50,[11],> 64 µM (inactive)
Cc1ccc2c(c1)-c1c(ssc1=S)C(C)(C)N2C(=O)c1ccco1,IC50,[12],> 66 µM (inactive)
same,IC50,[13],> 100 µM (inactive)
same,IC50,[14],> 66 µM (inactive)
N#C/C(=C(/O)COC(=O)CSc1ccc(Cl)cc1)c1nc2ccccc2[nH]1,IC50,[4],> 20 µM (inactive)
same,IC50,[5],> 20 µM (inactive)
same,IC50,[6],> 20 µM (inactive)
same,IC50,[7],> 20 µM (inactive)
Cc1nc2cc(C(=O)N3CCC4(CC3)OCCO4)ccc2n1-c1cccc(F)c1,EC50,[9],> 50 µM (active)
CC(=O)Nc1nc2ccccc2n1Cc1ccccc1Cl,CC50,[15],15.5 µM (active)
same,IC50,[4],19.9 µM (active)
same,IC50,[5],> 20 µM (inactive)
same,IC50,[6],> 20 µM (inactive)
same,IC50,[16],4.15 µM (active)
same,CC50,[17],> 20 µM (active)
same,IC50,[7],> 20 µM (inactive)
same,CC50,[18],14.1 µM (active)
N#CCCn1c2ccccc2c2nc3ccccc3nc21,EC50,[9],> 50 µM (active)
CCN1CCN(CCNC(=O)c2ccc3c(c2)N(Cc2ccc(F)cc2)C(=O)/C(=C/c2ccccc2)S3)CC1,IC50,[11],50 µM (inactive)
same,IC50,[19],> 20 µM (inactive)
same,AC50,[20],3.61 µM (active)
COc1ccc(Cl)cc1NC(=O)CN(C)CC(=O)Nc1ccccc1C(F)(F)F,EC50,[9],> 50 µM (active)
Cc1nc2ncnn2c(N2CCN(C(=O)Cc3cccs3)CC2)c1C,IC50,[21],0.107 µM (not active)
Cc1c(CC(=O)N2CCC(C(N)=O)CC2)c(=O)oc2cc3c(cc12)CCC1(CCCCC1)O3,EC50,[9],> 50 µM (active)
O=C(Nc1nc2ccccc2n1Cc1ccc(Cl)cc1)c1ccc(F)cc1,IC50,[4],> 20 µM (inactive)
same,IC50,[5],> 20 µM (inactive)
same,IC50,[6],> 20 µM (inactive)
same,IC50,[7],> 20 µM (inactive)
O=C(Nc1nc2ccccc2n1Cc1ccc(Cl)cc1)C1CCCCC1,IC50,[4],> 20 µM (inactive)
same,IC50,[5],> 20 µM (inactive)
same,IC50,[6],> 20 µM (inactive)
same,IC50,[7],> 20 µM (inactive)
